The source of these data is ChEMBL document CHEMBL6121000, “Corosolic acid and its derivatives targeting MCCC1 against insulin resistance and their hypoglycemic effect on type 2 diabetic mice” (Eur J Med Chem, 2025).

Broadly, the inhibition is the relative decrease from the control value, in per cent. The Cmax is the highest concentration seen after dosing. In general, CL/F refers to the apparent clearance, not corrected for the fraction that reaches the circulation. Broadly, the bioavailability is dose-corrected exposure relative to a reference, in per cent. As usually defined, the solubility is the concentration that dissolves in the medium under given conditions. Low values mean little dissolved substance, high ones much dissolved substance. The half-life is the time needed for the level to fall by half in the phase considered. Low readings indicate rapid decline, high ones slow decline. The term MRT last denotes the average time that molecules of a dose stay in the body. A word on the Tmax: it is the time from dosing to the highest level. For orientation: AUC(0-t) means the area under the concentration-time curve up to a stated or last time point.

Converted amounts (≈) assume the structure as drawn. The source made the active and inactive calls.

The test system of data set [1] is HepG2. As to the kind of experiment: Lipid lowering activity in human HepG2 cells assessed as inhibition of FFA-induced triglyceride content at 20 uM preincubated for 1 hr followed by FFA treatment for 24 hrs relative to control. It is filed as functional.
Data set [2] is described as follows: Cmax in Sprague-Dawley rat at 20 mg/kg, po measured for 24 hrs by HPLC-ESI-MS analysis. It is filed as ADME, organism-based. To be noted: in vivo.
Data set [3] can be described thus: Toxicity in Sprague-Dawley rat assessed as reduction in number of crypts in colon tissue at 20 mg/kg, po for 5 days. The format is organism-based. To be noted: in vivo, 120 h, time 5 day.
Data set [4] is described as follows: Cytotoxicity against human HepG2 cells assessed as cell survival at 10 uM by MTT assay relative to control. It is filed as toxicity, cell-based. To be noted: read-out: Survival. (In general: Formazan colour is commonly taken as a measure of viable cells.)
The nature of data set [5]: Toxicity in Sprague-Dawley rat assessed as damage in heart at 20 mg/kg, po for 5 days. To be noted: in vivo, 120 h, time 5 day. The format is organism-based.
The test system of data set [6] is HepG2. As to the kind of experiment: Inhibition of insulin resistance in human HepG2 cells assessed as decrease in GlcN-induced glucose production at 20 uM preincubated for 1 hr followed by GlcN treatment for 18 hrs and subsequent insulin stimulation for 20 mins. It is filed as functional, cell-based. To be noted: time 19.33 hrs.
A short description of data set [7]: Toxicity in Sprague-Dawley rat assessed as damage in colon at 20 mg/kg, po for 5 days. It is filed as organism-based. To be noted: in vivo, 120 h, time 5 day.
Data set [8] concerns Mus musculus. The data set can be described thus: Hypoglycemic activity in HFD-fed STZ-induced diabetic C57BL/6J mouse model assessed as increase in hepatic glycogen synthesis at 20 mg/kg, po administered everyday for 3 weeks. The format is functional, organism-based.
The nature of data set [9]: Clearance in Sprague-Dawley rat at 20 mg/kg, po measured for 24 hrs by HPLC-ESI-MS analysis. The format is ADME, organism-based. To be noted: in vivo.
Data set [10] can be described thus: Toxicity in Sprague-Dawley rat assessed as damage in liver at 20 mg/kg, po for 5 days. The format is organism-based. To be noted: in vivo, 120 h, time 5 day.
The test system of data set [11] is Mus musculus. The data set can be described thus: Improvement in hepatic total cholesterol level of HFD-fed STZ-induced diabetic C57BL/6J mouse model at 20 mg/kg, po administered everyday for 3 weeks. It is filed as functional, organism-based.
Data set [12] can be described thus: Oral bioavailability in Sprague-Dawley rat at 20 mg/kg measured for 24 hrs by HPLC-ESI-MS analysis. The format is ADME, organism-based. To be noted: in vivo.
The nature of data set [13]: Cytotoxicity against human HepG2 cells assessed as cell viability at 80 uM incubated for 24 hrs by CCK8 assay relative to control. To be noted: HepG2 cells, read-out: Activity. The format is toxicity, cell-based.
The subject of data set [14] is HepG2. The data set can be described thus: Lipid lowering activity in human HepG2 cells assessed as reduction in FFA-induced triglyceride content at 20 uM preincubated for 1 hr followed by FFA treatment for 24 hrs. It is filed as functional, cell-based. To be noted: time 25.0 hrs.
Data set [15] is described as follows: Cytotoxicity against human HepG2 cells assessed as cell survival at 20 uM by MTT assay relative to control. It is filed as toxicity, cell-based. To be noted: read-out: Survival.
Data set [16] is described as follows: Volume of distribution in Sprague-Dawley rat at 20 mg/kg, po measured for 24 hrs by HPLC-ESI-MS analysis. To be noted: in vivo. It is filed as ADME, organism-based.
For data set [17], the system named is Mus musculus. The data set can be described thus: Hypoglycemic activity in HFD-fed STZ-induced diabetic C57BL/6J mouse model assessed as increase in GLUT4 level in liver at 20 mg/kg, po administered everyday for 3 weeks by Western blot analysis. The format is functional, organism-based.
A short description of data set [18]: Toxicity in Sprague-Dawley rat assessed as damage in lungs at 20 mg/kg, po for 5 days. It is filed as organism-based. To be noted: in vivo, 120 h, time 5 day.
Data set [19] in a line: Toxicity in Sprague-Dawley rat assessed as damage in spleen at 20 mg/kg, po for 5 days. The format is organism-based. To be noted: in vivo, 120 h, time 5 day.
The subject of data set [20] is Mus musculus. The data set can be described thus: Hypoglycemic activity in HFD-fed STZ-induced diabetic C57BL/6J mouse model assessed as increase in AKT phosphorylation in liver at 20 mg/kg, po administered everyday for 3 weeks by Western blot analysis. It is filed as functional, organism-based.
Data set [21] can be described thus: Solubility of compound in PBS. The format is physicochemical.
Data set [22] is described as follows: Half life in Sprague-Dawley rat at 20 mg/kg, po measured for 24 hrs by HPLC-ESI-MS analysis. The format is ADME, organism-based. To be noted: in vivo.
The subject of data set [23] is Mus musculus. As to the kind of experiment: Hypoglycemic activity in HFD-fed STZ-induced diabetic C57BL/6J mouse model assessed as decrease in blood glucose level at 20 mg/kg, po administered everyday for 3 weeks. The format is functional, organism-based.
Data set [24] has as its system Mus musculus. The data set can be described thus: Hypoglycemic activity in HFD-fed STZ-induced diabetic C57BL/6J mouse model assessed as improvement in triglyceride level in liver at 20 mg/kg, po administered everyday for 3 weeks. It is filed as functional, organism-based.
Data set [25] in a line: MRT (0 to t) in Sprague-Dawley rat at 20 mg/kg, po measured for 24 hrs by HPLC-ESI-MS analysis. It is filed as ADME, organism-based. To be noted: in vivo.
Data set [26] concerns Mus musculus. As to the kind of experiment: Inhibition of glucose production in HFD-fed STZ-induced diabetic C57BL/6J mouse model at 20 mg/kg, po administered everyday for 3 weeks. It is filed as functional, organism-based.
Data set [27] relates to Mus musculus. The data set can be described thus: Hypoglycemic activity in HFD-fed STZ-induced diabetic C57BL/6J mouse model assessed as reversal of diabetes-reduced MCCC1 level in liver at 20 mg/kg, po administered everyday for 3 weeks by Western blot analysis. The format is functional, organism-based.
The subject of data set [28] is HepG2. As to the kind of experiment: Cytotoxicity against human HepG2 cells assessed as cell survival at 40 uM by MTT assay. It is filed as toxicity, cell-based. To be noted: hepg2, 40 µM.
Data set [29] can be described thus: Toxicity in Sprague-Dawley rat assessed as inflammatory cell infiltration in colon tissue at 20 mg/kg, po for 5 days. The format is organism-based. To be noted: in vivo, 120 h, time 5 day.
Data set [30] in a line: Tmax in Sprague-Dawley rat at 20 mg/kg, po measured for 24 hrs by HPLC-ESI-MS analysis. It is filed as ADME, organism-based. To be noted: in vivo.
The nature of data set [31]: AUC (0 to t) in Sprague-Dawley rat at 20 mg/kg, po measured for 24 hrs by HPLC-ESI-MS analysis. The format is ADME, organism-based. To be noted: in vivo.
Data set [32] relates to HepG2. As to the kind of experiment: Cytotoxicity against human HepG2 cells assessed as cell survival at 10 to 40 uM by MTT assay. It is filed as toxicity, cell-based. To be noted: hepg2, 40 µM, dose 10-40 µM.

For `C[C@H]1[C@H](C)CC[C@]2(C(=O)O)CC[C@]3(C)C(=CC[C@@H]4[C@@]5(C)C[C@@H](O)[C@H](O)C(C)(C)[C@@H]5CC[C@]43C)[C@H]12` [COROSOLIC ACID], the inhibition at 20 µM in [1] turned out to be 61.6%. Further, in [2], the peak concentration (Cmax) is 802 ng/mL. Also, the Activity result was “Non-toxic” in data set [3]; “Non-toxic” in [5]; “Non-toxic” in [7]; “Non-toxic” in data set [10]; “Active; Slight Increase Observed” in [17]; “Non-toxic” in data set [18]. Besides, the Activity result in data set [19] is “Non-toxic”; in data set [23] it was “Active; Slight Decrease Was Observed”; in [28], “Toxic”; in data set [29] it was “Non-toxic”. For the same compound, in data set [4], the viability at 10 µM stood at 96%. The inhibition entry in data set [6] is “Active”. For the same compound, the result in [8], in data set [14], in data set [20], in [24] and in [27] was Active. The compound further had a CL/F in data set [9] of 23.1 mL/min/kg. Further, the result in [11] was inactive. In data set [12], this compound yielded a bioavailability of less than 1%. For the same compound, the viability at 24 h, 80 µM in [13] stood at 13.5%. Further, the viability at 20 µM in [15] was found to be 101%. The compound also came in with a Vd in data set [16] of 33.04048 L/kg. In [21], the solubility worked out at 0.55 µM (≈ 0.26 µg/mL). Further, in [22], the half-life was 16.5 h. The MRT last at 24 h in [25] worked out at 10.2 h. For the same compound, in [26], the inhibition entry is “inactive”. For the same compound, in data set [30], the Tmax was determined as 0.5 h. The area under the curve AUC(0-t) at 24 h in data set [31] was 9200 ng·h/mL.
For `C[C@H]1[C@H](C)CC[C@]2(C(=O)NCCCNC(=O)CCCC[C@H]3SC[C@H]4NC(=O)N[C@H]43)CC[C@]3(C)C(=CC[C@@H]4[C@@]5(C)C[C@@H](O)[C@H](O)C(C)(C)[C@@H]5CC[C@]43C)[C@H]12`, in data set [32], the Activity entry is reported as “Non-toxic”.
